From patent US20040224954A1, “Substituted 1H-quinoxalin-2-one compounds and substituted 4-aryl- and 4-heteroarylcyclohexane compounds” (priority 2001, published 2004)
Structures can show the parent of a compound that is named as a salt.

What was measured:
Male NMRI mice = assay: phenylquinone-induced writhing in mice (analgesic efficacy); assay type: in vivo; details: 10 mg/kg i.v., phenylquinone i.p. 10 minutes after compound, writhing counted 5-20 minutes after phenylquinone
Description: The investigation into analgesic efficacy was performed by phenylquinone-induced writhing in mice (modified after: I. C. Hendershot, J. Forsaith, J. Pharmacol. Exp. There. 125, 237-240 (1959)). The corresponding literature description is hereby introduced as a reference and is deemed to be part of the disclosure.
Male NMRI mice weighing from 25 to 30 g were used for this purpose. Groups of 10 animals per substance dose received, 10 minutes after intravenous administration of the compounds tested, 0.3 ml/mouse of a 0.02% aqueous solution of phenylquinone (phenylbenzoquinone, Sigma, Deisenhofen; solution prepared with addition of 5% of ethanol and stored in a water bath at 45° C.) administered intraperitoneally. The animals were placed individually in observation cages. A push button counter was used to record the number of pain-induced stretching movements (writhing reactions=straightening of the torso with stretching of the rear extremities) for 5-20 minutes after phenylquinone administration. The control was provided by animals which received only physiological common salt solution.
The compounds were tested at the standard dosage of 10 mg/kg. Inhibition of the writhing reactions by a substance was calculated according to the following formula: [formula]
The in-depth investigation into analgesic efficacy was performed using phenylquinone-induced writhing in mice, as described above.

SMILES	% inhibition of writhing reactions (Male NMRI mice) [%]	melting point [°C]
COc1cccc(C2(O)CCC(OC(=O)c3nc4cc(C)c(C)cc4[nH]c3=O)CC2CN(C)C)c1 (centres unmarked) [Example 3, 6,7-dimethyl-3-oxo-3,4-dihydroquinoxaline 2-carboxylic acid [3′-(N,N-dimethylaminomethyl)-4′-hydroxy-4′-(m-methoxyphenyl)-cyclohexyl] ester]	90	
COc1cccc(C2(O)CCC(NC(=O)c3nc4cc(C)c(C)cc4[nH]c3=O)CC2CN(C)C)c1 (centres unmarked) [Example 1, 6,7-dimethyl-3-oxo-3,4-dihydroquinoxaline 2-carboxylic acid [3′-(N,N-dimethylaminomethyl)-4′-hydroxy-4′-(m-methoxyphenyl)-cyclohexyl]amide hydrochloride]	72	
COc1cccc(C2(O)CCC(NC(=O)c3nc4cc(Cl)c(Cl)cc4[nH]c3=O)CC2CN(C)C)c1 (centres unmarked) [Example 2, 6,7-dichloro-3-oxo-3,4-dihydroquinoxaline 2-carboxylic acid [3′-(N,N-dimethylaminomethyl)-4′-hydroxy-4′-(m-methoxyphenyl)-cyclohexyl]amide]	55	
COc1cccc(C2(O)CCC(OC(=O)c3nc4cc(Cl)c(Cl)cc4[nH]c3=O)CC2CN(C)C)c1 (centres unmarked) [Example 4, 6,7-dichloro-3-oxo-3,4-dihydroquinoxaline 2-carboxylic acid [3′-(N,N-dimethylaminomethyl)-4′-hydroxy-4′-(m-methoxyphenyl)-cyclohexyl] ester]	84	175 to 177
